pIC50: −log10 of the molar value. Like-named read-outs stand apart in the source and are kept apart here.
Legend:
[1] = biological target: T1, LRAT (Bos taurus, UniProt Q9BGL2); assay: LRAT activity assay with bovine RPE microsomes (esterification of the corresponding primary alcohols); type: biochemical; conditions: percentage of the corresponding primary alcohol esterified by LRAT in 1 h at 37° C; 10 μM; RPE microsomes
T1 construct: incubated with RPF microsomes that served as a source of LRAT enzymatic activity; from tissue; host or cells: bovine retinal pigment epithelium (RPE) microsomes
T1 sequence (Q9BGL2 1-230): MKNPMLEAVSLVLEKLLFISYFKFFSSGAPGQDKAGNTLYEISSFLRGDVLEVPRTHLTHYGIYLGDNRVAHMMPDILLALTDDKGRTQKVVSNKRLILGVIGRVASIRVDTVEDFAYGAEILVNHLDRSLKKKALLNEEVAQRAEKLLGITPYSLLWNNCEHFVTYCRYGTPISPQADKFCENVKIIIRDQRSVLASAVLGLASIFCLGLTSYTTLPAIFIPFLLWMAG
Method: (§1) Bovine RPE microsomes were isolated from RPE homogenates by differential centrifugation as previously described. The resulting microsomal precipitate was resuspended in 10 mM Bis-Tris propane/HCl buffer, pH 7.4, to achieve a total protein concentration of […]. Then the mixture was placed in a quartz cuvette and irradiated for 6 min at 4° C. with a ChromatoUVE transilluminator (model TM-15; UVP) to eliminate residual retinoids. After irradiation, DTT was added to the RPE microsomal mixture to achieve a final concentration of 5 mM.
Two μl of a synthesized primary alcohol or amine dissolved in DMF (final concentration 10 μM) and 2 μl of 1,2-diheptanoyl-sn-glicerol-3-phosphocholine (water, final concentration 1 mM) were added to 200 μl of 10 mM Bis-Tris propane/HCl buffer, pH 7.4, containing 150 μg of RPE microsomes and 1% (v/w) BSA. The resulting mixture was incubated at 37° C. for 1 h. The reaction was quenched by adding 300 μl of methanol. Most reaction products were extracted with 300 μl of hexanes, except for products from the QEA-C-006 and QEA-G groups which were extracted by adding 300 μl of ethyl acetate and 300 μl of water.
Reaction products were separated and quantified by normal phase HPLC (Agilent Sil 5 μm, 4.6 mm×250 mm) in stepwise gradient of ethyl acetate in hexanes (0-15 min, 10%; 20-30 min, 30%) at a flow rate of 1.4 ml·min^−1.
The properties of retinoid derivatives were examined by two standard enzymatic tests, the […] and retinoid isomerization assays. To identify substrates of LRAT, aldehydes were reduced by sodium borohydrate to their corresponding primary alcohols that then were directly used in the esterification assay (FIG. 2B).
The alcohols were incubated with RPF microsomes that served as a source of LRAT enzymatic activity. Products of the enzymatic reaction as well as the remaining substrates were extracted with organic solvents and analyzed by HPLC. The ratio between a substrate and its esterified form was used to measure enzymatic activity efficiency, based on equivalent UV absorption of the substrate and product at their specific UV maxim wavelengths. Compounds classified as ‘good’ LRAT substrates converted at least 50% of their available alcohol substrates into corresponding esters under these experimental conditions, whereas marginal LRAT substrates were converted at less than 5%. Alcohols with a 5-50% conversion ratio were classified as weak substrates. Among 35 tested compounds, 23 were categorized as good and 9 as weak substrates; 3 compounds were not esterified by LRAT (Table 1 and FIG. 2C). […] Moreover, breaking double bond conjugation along the polyene chain or deletion of a C9 and/or a C13 methyl group also was allowed.

[2] = biological target: T2, RPE65 (Bos taurus, UniProt Q28175); assay: Retinoid isomerase activity assay (11-cis-retinol production in RPE microsomes); type: biochemical, Bovine
T2 construct: from tissue; host or cells: bovine retinal pigment epithelium (RPE) microsomes
Method: as §1
[…] The resulting mixture was pre incubated at room temperature for 5 min. Then 1 μl of all-trans-retinol (in DMF, final concentration 20 μM) was added. The resulting mixture was incubated at 37° C. for 15 min to 2 h. The reaction was quenched by adding 300 μl of methanol, and products were extracted with 300 μl of hexanes. Production of 11-cis-retinol was quantified by normal phase HPLC with 10% (v/v) ethyl acetate in hexanes as the eluent at a flow rate of 1.4 ml·min^−1. Retinoids were detected by monitoring their absorbance at 325 nm and quantified based on a standard curve representing the relationship between the amount of 11-cis-retinol and the area under the corresponding chromatographic peak.
Primary amines of compounds derived from the aldehydes were subsequently tested for their ability to inhibit the RPE65-dependent retinoid isomerization reaction in dose- and time dependent reactions as exemplified by QEB-B-001 (FIG. 3B). Amines were incubated with RPE microsomes in the presence of all-trans-retinol and the 11-cis-retinoid binding protein, CRALBP.
Progress of the enzymatic reaction was monitored by HPLC separation of retinoids and quantification of 11-cis-retinol with a decrease of 11-cis-retinol production reflecting inhibition of RPE65 by a tested amine. […] This moderate inhibition could be enhanced by shortening the polyene chain length (TEA amines) or diminished by introducing an extra positive charge into the tested compounds (QEA-G amines).

[3] = Analysis of retinoid composition in mouse tissues: amide forms in liver by HPLC; type: in vivo, mice; conditions: oral gavage; for Protection by amide in liver: 4-week-old Abca4−/−Rdh8−/− mice, dark 24 h, liver extracts by HPLC; for amidation in vivo (accumulation of amide forms in mouse liver): liver HPLC
Method: (§2) Abca4^−/−Rdh8^−/− double knockout mice were generated as previously described. Mice were housed in the animal facility at the School of Medicine, Case Western Reserve University, where they were maintained under either complete darkness or in a 12-h light (˜300 lux) and 12-h dark cycle. All tested primary amines were suspended in 100 μl of soybean oil with less than 10% (v/v) DMSO and were administered by oral gavage with a 22-gauge feeding needle. Experimental manipulations in the dark were done under dim red light transmitted through a Kodak No. 1 safelight filter (transmittance >560 nm). All animal procedures and experiments were approved by the Case Western Reserve University Animal Care Committees and conformed to recommendations of the American Veterinary Medical Association Panel on Euthanasia and the Association of Research for Vision and Ophthalmology.
Two mg of primary amines were administered by oral gavage to 4-week-old Abca4^−/−Rdh8^−/− mice, which then were kept in the dark for 24 h. Then mice were euthanized, and their livers were homogenized in 1 ml of 10 mM sodium phosphate buffer, pH 7.4, containing 50% methanol (v/v). The resulting mixture was extracted with 4 ml of hexanes. Extracts were dried in vacuo, and reconstituted in 300 μl of hexanes. 100 μl of this solution was analyzed by HPLC as described above for the LRAT activity assay.
(§3) For practical reasons, only eight of these leading compounds (QEA-B-001-NH2, B-002-NH2, C-001-NH2, C-003-NH2, C006-NH2, E-002-NH2, TEA-B-002-NH2, and C00-2-NH2) along with retinylamine as a control were selected for further testing in Abca4^−/−Rdh8^−/− mice, an animal model for light-induced retinal degeneration (Table 2). Additionally, two novel amines with moderate inhibition of RPE65 (QEA-A-006-NH2 and QEA-B-003-NI 12) and one with strong inhibition (QEA-A-005-NH2) were added to the first test group for comparison. Mice were gavaged with 1 mg of a test compound and then kept in the dark for 24 h prior to being exposed to bright light (˜10,000 lux) for 1 h. Retinal damage was assessed with OCT that measured the thickness of the outer nuclear layer and by quantification of tissue 11-cis retinal levels. An example is shown for imaging results in FIG. 4A and for 11-cis-retinal quantification in FIG. 4B. Additionally, extracts of livers obtained from treated mice were analyzed by HPLC to estimate the amounts of corresponding amides (FIG. 4C).

[4] = system: Abca4^−/−Rdh8^−/− mice; assay: Toxicity in treated Abca4−/−Rdh8−/− mice (Table 2); type: in vivo; conditions: 4-week-old Abca4−/−Rdh8−/− mice, oral gavage
Method: as §2, §3

[5] = system: Abca4^−/−Rdh8^−/− mice; assay: Light-induced acute retinal degeneration in Abca4−/−Rdh8−/− mice (OCT, 11-cis-retinal, ERG); type: in vivo; conditions: 2 mg; dark 24 h, then 10,000 lux 1 h
[6] = primary amine, decline in 11-cis-retinol production in RPE microsomes, read-out: Inhibition of RPE65

T2 sequence (Q28175 whole entry): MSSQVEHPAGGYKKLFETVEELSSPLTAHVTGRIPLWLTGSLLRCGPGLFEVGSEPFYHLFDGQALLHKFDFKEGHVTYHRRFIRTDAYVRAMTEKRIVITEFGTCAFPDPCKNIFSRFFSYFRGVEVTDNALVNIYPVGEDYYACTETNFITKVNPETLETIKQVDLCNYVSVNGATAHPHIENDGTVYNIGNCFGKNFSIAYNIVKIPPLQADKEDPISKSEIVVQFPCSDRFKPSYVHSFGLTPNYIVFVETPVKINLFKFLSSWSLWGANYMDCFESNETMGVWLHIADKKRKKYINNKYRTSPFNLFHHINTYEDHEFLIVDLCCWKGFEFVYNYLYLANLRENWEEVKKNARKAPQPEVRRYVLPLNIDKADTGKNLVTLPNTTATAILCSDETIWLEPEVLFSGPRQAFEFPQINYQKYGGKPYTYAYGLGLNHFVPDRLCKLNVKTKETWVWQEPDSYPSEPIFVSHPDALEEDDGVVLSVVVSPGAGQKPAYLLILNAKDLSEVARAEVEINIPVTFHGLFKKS

## CC1=C(/C=C/C=C/C=C/C=C/CN)C(C)(C)CCC1 [QEA-A-005-NH2]
[1]
  LRAT Substrate: 100%
[2]; [6]
  pIC50: > 5.00
[2]; read-out: inhibition of RPE65
  pIC50: > 5.00
[3]
  Protection by amide in liver: Strong
[4]
  Toxicity: None
[5]
  protection of ONL (averaged ONL thickness by OCT): protected

## COc1ccc(C(=C\C=C\C(C)=C\CN)/C=C/c2ccc(O)cc2)cc1 [QEA-C-006-NH2]
[1]
  LRAT Substrate: 50%
[2]
  inhibition of RPE65: did not inhibit
[2]; [6]
  pIC50: < 3.70
[3]
  Protection by amide in liver: None
  amidation in vivo (accumulation of amide forms in mouse liver): not efficiently amidated
[4]
  Toxicity: None

## COc1ccc(C(=C\C=C\C(C)=C\CN)/C=C/C2=CCCCC2)cc1 [QEA-E-002-NH2]
[1]
  LRAT Substrate: 100%
[2]
  inhibition of RPE65: did not inhibit
[2]; [6]
  pIC50: < 3.70
[3]
  Protection by amide in liver: Weak
  amidation in vivo (accumulation of amide forms in mouse liver): not efficiently amidated
[4]
  Toxicity: None

## CC(C)(C)C(=C\C=C\CN)/C=C/C1=CCCCC1 [TEA-B-002-NH2]
[1]
  LRAT Substrate: 10%
[2]
  inhibition of RPE65: did not inhibit
[2]; [6]
  pIC50: < 3.70
[3]
  Protection by amide in liver: None
  amidation in vivo (accumulation of amide forms in mouse liver): not efficiently amidated
[4]
  Toxicity: Yes

## CC(/C=C/C=C(/c1ccc2ccccc2c1)C(C)(C)C)=C\CN [TEA-C-002-NH2]
[1]
  LRAT Substrate: 20%
[2]
  inhibition of RPE65: did not inhibit
[2]; [6]
  pIC50: < 3.70
[3]
  Protection by amide in liver: Strong
  amidation in vivo (accumulation of amide forms in mouse liver): efficiently converted into amides
[4]
  Toxicity: Yes

From patent publication US10363231B2, “Compounds and methods of treating ocular disorders” (CASE WESTERN RESERVE UNIVERSITY, priority 2014, dated 2019)
